Source: US20250122529A1, “POLYCISTRONIC VECTORS FOR CELL-BASED THERAPIES” (Sana Biotechnology, Inc., priority 2021, published 2025)

What was measured:
[1] = system: CyD-CD47 clones 2-G09 and 2-G11; test: CyD kill curve with 5-FC (cell count); format: cell-based
Source text: Hollow triangles represent iPSCs; filled triangles represent differentiated cells.
The bicistronic vector was used to transduce induced pluripotent stem cells (iPSCs), which were then allowed to differentiate. Differentiation of CyD-CD47-expressing clones in 2D was not affected by safety switch expression (data not shown here).

CD47-HSVtk clones [2] = details: range reported in literature; IC50s in CD47-HSVtk clones generally comparable; cited from earlier work
control clone = test: GCV toxicity in control clone; format: cell-based; details: tested dose range
CD47-HSVtk clones [3] = test: HSVtk kill curve with GCV (flow cytometry with counting beads); format: cell-based; details: various amounts of GCV; after three days
Source text: Calculated IC50 and R square (R^2) values for each clone are also shown.

CD22 = CD22 (Homo sapiens, UniProt P20273); details: affinity matured variant; read-out: CD22 binding affinity; cited from earlier work

**Q.** What does the source list for `Nc1nc(=O)[nH]cc1F` [Construct 5-FC, 5-fluorocytosine]?
**A.** killing ([1]; CyD in the presence of 5-FC, differentiated cells, clones 2-G09 and 2-G11): more than 99%; IC50 ([1]; differentiated cells relative to iPSCs): comparable IC50s relative to iPSCs

**Q.** What does the source list for `Nc1nc(O)c2ncn(COC(CO)CO)c2n1` [GCV, ganciclovir]?
**A.** IC50 (CD47-HSVtk clones [2]): 10 to 100 nM; GCV toxicity (control clone): no GCV toxicity; HSVtk killing (viable cell count %) (CD47-HSVtk clones [3]): dose-response HSVtk killing was achieved

B1: m971-L7: affinity matured variant of m971 (protein)
scFv: QVQLQQSGPGMVKPSQTLSLTCAISGDSVSSNSVAWNWIRQSPSRGLEWLGRTYYRSTWYNDYAVSMKSRITINPDTNKNQFSLQLNSVTPEDTAVYYCAREVTGDLEDAFDIWGQGTMVTVSSGGGGSGGGGSGGGGSDIQMIQSPSSLSASVGDRVTITCRASQTIWSYLNWYRQRPGEAPNLLIYAASSLQSGVPSRFSGRGSGTDFTLTISSLQAEDFATYYCQQSYSIPQTFGQGTKLEIK
modifications: Synthetic: Anti-CD22 m971-L7 scFv entire sequence, with 3xG4S linker
**Q.** With B1 as the molecule, how does the Kd (CD22) read?
**A.** The Kd was < 0.05 nM.
